Laboratory results: ChEMBL document CHEMBL1201862, “PubChem BioAssay data set” (2004)
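Each compound was tested at five concentrations against cells in 96-well plates for 48 hours. Abbreviation: GI50, concentration required for 50% inhibition of growth.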 Activity calls are given as the source filed them. Cut-off read from the data, not from the text of the source: active = GI50 up to about 1.1 µM and inactive = higher.

How the values were obtained:
Assay in all cases: NCI-60 cell line screen, 48 h
ACHN = system: ACHN
BT-549 = system: BT-549
CCRF-CEM = system: CCRF-CEM
HCT-116 = system: HCT-116
HOP-62 = system: HOP-62
HT-29 = system: HT-29
IGROV-1 = system: IGROV-1
KM12 = system: KM12
NCI-H460 = system: NCI-H460
PC-3 = system: PC-3
RPMI-8226 = system: RPMI-8226
RXF 393 = system: RXF 393
SK-MEL-5 = system: SK-MEL-5
SR = system: SR
SW-620 = system: SW-620
TK-10 = system: TK-10
U-251 = system: U-251
DMS-273 = system: DMS-273
M19-MEL = system: M19-MEL

Compound | GI50 (ACHN) | GI50 (BT-549) | GI50 (CCRF-CEM) | GI50 (HCT-116) | GI50 (HOP-62) | GI50 (HT-29) | GI50 (IGROV-1) | GI50 (KM12) | GI50 (NCI-H460) | GI50 (PC-3) | GI50 (RPMI-8226) | GI50 (RXF 393) | GI50 (SK-MEL-5) | GI50 (SR) | GI50 (SW-620) | GI50 (TK-10) | GI50 (U-251) | GI50 (DMS-273) | GI50 (M19-MEL)
[N-]=[N+]=NCC(=O)c1cnc(O)nc1O | > 100 µM (inactive) | > 100 µM (inactive) | > 100 µM (inactive) | > 100 µM (inactive) | > 100 µM (inactive) | > 100 µM (inactive) | > 100 µM (inactive) | > 100 µM (inactive) | > 100 µM (inactive) | > 100 µM (inactive) | > 100 µM (inactive) | > 100 µM (inactive) | > 100 µM (inactive) | > 100 µM (inactive) | > 100 µM (inactive) | > 100 µM (inactive) | > 100 µM (inactive) |  | 
Cc1cc2c(cc1C)[n+]([O-])c(C(F)(F)F)c(C(=O)c1ccccc1)[n+]2[O-] | 2.39 µM (inactive) | 5.35 µM (inactive) | 2.02 µM (inactive) | 2.24 µM (inactive) | 0.299 µM (active) | 1.71 µM (inactive) | 1.37 µM (inactive) | 1.85 µM (inactive) | 1.26 µM (inactive) | 2.09 µM (inactive) | 1.24 µM (inactive) | 3.13 µM (inactive) | 1.73 µM (inactive) | 0.527 µM (active) | 3.72 µM (inactive) | 3.3 µM (inactive) | 2.67 µM (inactive) |  | 
COc1cccc(C2CC(C)(O)Oc3cc4c(cc32)OCO4)c1 (stereo not drawn) | 25.9 µM (inactive) | 16.1 µM (inactive) | 47.8 µM (inactive) | 9.44 µM (inactive) | 21.1 µM (inactive) | 7.26 µM (inactive) | 24 µM (inactive) | 11.2 µM (inactive) | 16.1 µM (inactive) | 25.1 µM (inactive) | 16.1 µM (inactive) | 28 µM (inactive) | 14.2 µM (inactive) | 4.58 µM (inactive) | 7.31 µM (inactive) | 21.1 µM (inactive) | 23.4 µM (inactive) |  | 
CCCCCCCCCCCCCCCCCCOCC(O)COP(=O)(O)OCC1OC(n2cc(F)c(=O)[nH]c2=O)CC1O (stereo not drawn) | 0.38 µM (active) | 13.7 µM (inactive) | 0.318 µM (active) | 1.29 µM (inactive) | 0.15 µM (active) | 10.5 µM (inactive) | 11.4 µM (inactive) | 14.5 µM (inactive) | 0.678 µM (active) | 3.07 µM (inactive) | 2.17 µM (inactive) | 11.9 µM (inactive) | 4.01 µM (inactive) | 0.533 µM (active) | 13.7 µM (inactive) | 8.93 µM (inactive) | 1.75 µM (inactive) |  | 
CCOC(=O)c1cnc2c(ccc3ncccc32)c1NCCCN(CC)CC | > 100 µM (inactive) |  | 38.4 µM (inactive) |  | > 100 µM (inactive) | 39.1 µM (inactive) | > 100 µM (inactive) | 38.3 µM (inactive) | 35.2 µM (inactive) |  | 38.2 µM (inactive) |  | > 100 µM (inactive) |  | 41.9 µM (inactive) | > 100 µM (inactive) | 72.4 µM (inactive) | 54.1 µM (inactive) | > 100 µM (inactive)
COCN1C(=O)[C@@H]2CCCN2C(=O)c2ccc([N+](=O)[O-])cc21 | > 100 µM (inactive) | > 100 µM (inactive) | > 100 µM (inactive) | > 100 µM (inactive) | > 100 µM (inactive) | > 100 µM (inactive) | > 100 µM (inactive) | > 100 µM (inactive) | > 100 µM (inactive) | > 100 µM (inactive) | > 100 µM (inactive) | > 100 µM (inactive) | > 100 µM (inactive) | 48.4 µM (inactive) | > 100 µM (inactive) | > 100 µM (inactive) | > 100 µM (inactive) |  | 
[N-]=[N+]=CC(=O)C1CCCN1C(=O)c1ccccc1 (stereo not drawn) | > 10 µM (inactive) | > 10 µM (inactive) | > 10 µM (inactive) | > 10 µM (inactive) | > 10 µM (inactive) | > 10 µM (inactive) | > 10 µM (inactive) | > 10 µM (inactive) | > 10 µM (inactive) | > 10 µM (inactive) | > 10 µM (inactive) | > 10 µM (inactive) | > 10 µM (inactive) | > 10 µM (inactive) | > 10 µM (inactive) | > 10 µM (inactive) | > 10 µM (inactive) |  | 
COc1ccc(C(OCC2OC(n3ccc(Oc4c(F)c(F)c(F)c(F)c4F)nc3=O)CC2OP(OCCC#N)N(C(C)C)C(C)C)(c2ccccc2)c2ccc(OC)cc2)cc1 (stereo not drawn) | > 100 µM (inactive) | > 100 µM (inactive) | 77.3 µM (inactive) | > 100 µM (inactive) | > 100 µM (inactive) | > 100 µM (inactive) | > 100 µM (inactive) | > 100 µM (inactive) | > 100 µM (inactive) | > 100 µM (inactive) | > 100 µM (inactive) | > 100 µM (inactive) | 68.2 µM (inactive) | > 100 µM (inactive) | > 100 µM (inactive) | > 100 µM (inactive) | > 100 µM (inactive) |  | 
